Test in all cases: inhibition of tumour cell growth, NCI panel, 48 h
For test [1], the system named is RPMI-8226.
Test [2] has as its system TK-10.
Test [3] deals with UO-31.
Test [4] relates to SNB-75.
The test system of test [5] is ACHN.
Test [6] deals with A498.
For test [7], the system named is KM12.
The test system of test [8] is Malme-3M.
In test [9] the test system is LOX IMVI.
Test [10] concerns HOP-92.
Test [11] relates to M14.
Test [12] relates to LXFL 529.
Test [13] concerns SK-MEL-28.
Test [14] deals with K562.
Test [15] concerns COLO 205.
In test [16] the test system is OVCAR-3.
Test [17] has as its system A549.
Test [18] has as its system SN12C.

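Compound exposure: 48 hours, 5 concentrations, 96-well plates. GI50: concentration for 50% inhibition of growth.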 Active and inactive are the calls of the source. No stated cut-off is given here; in the data, active = GI50 up to about 1.1 µM and inactive = higher. Some results are limits rather than exact numbers.

`CC12OC3(C)OC(=O)C(c4ccccc4)(O1)C3(C)O2` (stereo not given): the GI50 in [1], in test [2], in test [3], in test [4], in test [5] and in [6] was > 100 µM (inactive) in each case. The GI50 in test [7], in test [8], in [9], in [10], in [11] and in test [12] was > 100 µM (inactive) throughout. The GI50 in [13], in [14], in [15], in test [16], in [17] and in test [18] was > 100 µM (inactive) each time.

Regarding `NC(=O)OCC(COc1ccc(Cl)cc1)OC(=O)c1ccccc1Cl` (stereo not given), the GI50 is 21.8 µM (inactive) in [1]; 28.8 µM (inactive) in test [2]; 22.3 µM (inactive) in test [3]; 41.7 µM (inactive) in test [4]; 31.6 µM (inactive) in test [5]; > 100 µM (inactive) in test [6]. Also, the GI50 in [7] was 21.6 µM (inactive); in test [8], 20.3 µM (inactive); in test [9], 13.8 µM (inactive); in test [10], 17.1 µM (inactive); in [11], 18.7 µM (inactive); in [12] it was 24.1 µM (inactive). Further, the GI50 in test [13] was 18.6 µM (inactive); in test [14], 20.7 µM (inactive); in [15], 17.5 µM (inactive); in [16], 20.3 µM (inactive); in test [17], 27.8 µM (inactive); in [18], 16.6 µM (inactive).

Turning to `[O-][S+]1Nc2c(Cl)cc(Cl)c(Cl)c2S1` (stereo not given), the GI50 in test [1] is > 100 µM (inactive); in [2], > 100 µM (inactive); in test [3], 86.9 µM (inactive); in test [4] it was 22.7 µM (inactive); in test [5] it was > 100 µM (inactive); in test [6], 82.6 µM (inactive). Further, the GI50 in [7] is > 100 µM (inactive); in [8], > 100 µM (inactive); in test [9] it was 78.9 µM (inactive); in test [10], 35.2 µM (inactive); in [11] it was > 100 µM (inactive); in test [12], > 100 µM (inactive). Further, the GI50 in test [13] was > 100 µM (inactive); in test [14], 74.3 µM (inactive); in [15], > 100 µM (inactive); in [16] it was 78.2 µM (inactive); in test [17], > 100 µM (inactive); in test [18], > 100 µM (inactive).

As to `O=c1/c(=C/c2cccc([N+](=O)[O-])c2)sc2nc3ccccc3n12`, the GI50 in [2] was > 100 µM (inactive); in [3], > 100 µM (inactive); in test [4] it was 32.8 µM (inactive); in test [5], 84.7 µM (inactive); in test [6], > 100 µM (inactive); in [7] it was > 100 µM (inactive). Further, the GI50 in test [8] was > 100 µM (inactive); in test [9] it was 6.73 µM (inactive); in [10], > 10 µM (inactive); in test [11] it was 55.1 µM (inactive); in test [12], > 100 µM (inactive); in test [13], 35.6 µM (inactive). The GI50 in test [14] was > 100 µM (inactive); in [16] it was > 10 µM (inactive); in [17] it was > 10 µM (inactive); in test [18] it was > 100 µM (inactive).

`COC(=O)CCC(NC(=S)N/N=C/c1cccs1)C(=O)OC` (stereo not given): the GI50 in [2], in test [3], in test [4], in [5], in test [6] and in test [7] was > 100 µM (inactive) throughout. The GI50 in test [8], in test [9], in test [10], in [11], in [12] and in [13] was > 100 µM (inactive) each time. For the same compound, the GI50 in test [14], in test [15], in test [16], in test [17] and in test [18] was > 100 µM (inactive) each time.

For `COCNC(=NC#N)NCOC`, the GI50 in test [1] was > 49.3 µM (inactive); in [2], > 100 µM (inactive); in test [3] it was > 100 µM (inactive); in test [4] it was > 100 µM (inactive); in test [5] it was > 100 µM (inactive); in test [6], > 100 µM (inactive). Moreover, the GI50 was > 52 µM (inactive) in [7]; > 100 µM (inactive) in test [8]; > 41.7 µM (inactive) in test [9]; > 100 µM (inactive) in test [10]; > 100 µM (inactive) in [11]; > 100 µM (inactive) in [12]. Moreover, the GI50 is > 100 µM (inactive) in test [13]; > 64.6 µM (inactive) in [14]; > 53.5 µM (inactive) in test [15]; > 100 µM (inactive) in [16]; > 71.9 µM (inactive) in test [17]; > 100 µM (inactive) in test [18].

For the compound `CC12CCC3(OCCO3)C(OC(=O)c3ccccc3)=C1CCC21OCCO1` (stereo not given), the GI50 was 71.3 µM (inactive) in [1]; > 100 µM (inactive) in test [2]; > 100 µM (inactive) in [3]; > 100 µM (inactive) in test [4]; > 100 µM (inactive) in test [5]; > 100 µM (inactive) in [6]. For the same compound, the GI50 in test [7], in [8], in test [9], in test [10], in test [11] and in test [12] was > 100 µM (inactive) each time. In addition, the GI50 is > 100 µM (inactive) in test [13]; 63.1 µM (inactive) in [15]; > 100 µM (inactive) in test [16]; > 100 µM (inactive) in test [17]; > 100 µM (inactive) in test [18].

`O=C(CC(=O)c1cccc([N+](=O)[O-])c1)C(=O)Nc1nc([N+](=O)[O-])cs1`: the GI50 in test [1] was 65 µM (inactive); in [2], > 100 µM (inactive); in test [3] it was > 100 µM (inactive); in test [6], > 100 µM (inactive); in test [7] it was > 100 µM (inactive); in [8], > 100 µM (inactive). Moreover, the GI50 was > 100 µM (inactive) in test [9]; > 100 µM (inactive) in [10]; > 100 µM (inactive) in [11]; 60.1 µM (inactive) in test [12]; > 100 µM (inactive) in test [13]; 94.8 µM (inactive) in [14]. For the same compound, the GI50 in test [15], in test [16], in [17] and in test [18] was > 100 µM (inactive) each time.

Regarding `Cc1ccc2oc(=O)cc(CC(=O)O)c2c1`, the GI50 in test [1], in test [2], in test [4], in test [5], in test [6] and in test [7] was > 100 µM (inactive) in each case. Besides, the GI50 in test [8], in [9], in test [10], in [11], in test [12] and in test [13] was > 100 µM (inactive) each time. The GI50 in test [14], in test [15], in test [16], in test [17] and in test [18] was > 100 µM (inactive) in each case.

Turning to `O=C(O)CCC1c2[nH]c3ccccc3c2CCN1Cc1ccccc1` (stereo not given), the GI50 in test [2], in test [3], in test [4], in [5], in [6] and in test [7] was > 100 µM (inactive) each time. Moreover, the GI50 in test [8], in test [9], in test [10], in [11], in test [12] and in test [13] was > 100 µM (inactive) throughout. In addition, the GI50 in test [14], in [15], in test [16], in test [17] and in test [18] was > 100 µM (inactive) each time.

Take `COc1ccc2oc(C(=O)O)c3c2c1CCC3`: the GI50 in test [1], in test [2], in [4], in test [5], in [6] and in test [9] was > 100 µM (inactive) throughout. Also, the GI50 in [10] was 42.5 µM (inactive); in test [11] it was > 100 µM (inactive); in test [12], > 100 µM (inactive); in [13], > 100 µM (inactive); in test [14] it was > 100 µM (inactive); in test [15], > 100 µM (inactive). Moreover, the GI50 in [16], in [17] and in test [18] was > 100 µM (inactive) each time.

Take `O=C1/C(=C/c2ccccc2)CNC/C1=C\c1ccccc1`: the GI50 in test [1] was 0.221 µM (active); in test [2] it was 2.4 µM (inactive); in [3] it was 2.02 µM (inactive); in [4], 3.38 µM (inactive); in test [5], 2.05 µM (inactive); in [6] it was 1.97 µM (inactive). The GI50 in [7] is 0.962 µM (active); in test [8], 3.26 µM (inactive); in test [9], 0.643 µM (active); in test [10] it was 8.13 µM (inactive); in test [11], 1.81 µM (inactive); in test [12] it was 1.49 µM (inactive). Also, the GI50 is 1.92 µM (inactive) in test [13]; 0.52 µM (active) in test [14]; 1.58 µM (inactive) in [15]; 1.42 µM (inactive) in test [16]; 2.28 µM (inactive) in test [17]; 1.69 µM (inactive) in [18].
